Toxic doses and inconclusive results are not listed. Rule as the data show it: active = T/C of 150% or more; inactive = T/C below 125%.
Test system: L1210 leukemia ip in BDF1 mice, survival T/C
Experiment: NCI In Vivo Anticancer Drug Screen. Data for tumor model L1210 Leukemia (intraperitoneal) in B6D2F1 (BDF1) mice
Conditions: endpoint: mean survival time, higher = longer survival
How it was run: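 Value reflects the ratio of survival in compound-treated mice to survival in vehicle-treated controls, with both groups carrying the same transplanted tumor.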

[1] = dose: 100.0 mg/kg/injection, schedule: Q01DX001 (ip), vehicle: saline
[2] = dose: 200.0 mg/kg/injection, schedule: Q01DX001 (ip), vehicle: saline
[3] = dose: 100.0 mg/kg/injection, schedule: Q04DX003 (ip), vehicle: saline with Tween-80
[4] = dose: 200.0 mg/kg/injection, schedule: Q04DX003 (ip), vehicle: saline with Tween-80
[5] = dose: 100.0 mg/kg/injection, schedule: Q01DX001 (ip), vehicle: carboxymethylcellulose (CMC)
[6] = dose: 200.0 mg/kg/injection, schedule: Q01DX001 (ip), vehicle: carboxymethylcellulose (CMC)
[7] = dose: 400.0 mg/kg/injection, schedule: Q01DX001 (ip), vehicle: carboxymethylcellulose (CMC)
[8] = dose: 100.0 mg/kg/injection, schedule: Q04DX003 (ip), vehicle: Klucel (hydroxypropylcellulose) (HPC)
[9] = dose: 200.0 mg/kg/injection, schedule: Q04DX003 (ip), vehicle: Klucel (hydroxypropylcellulose) (HPC)
[10] = dose: 400.0 mg/kg/injection, schedule: Q04DX003 (ip), vehicle: Klucel (hydroxypropylcellulose) (HPC)
[11] = dose: 50.0 mg/kg/injection, schedule: Q01DX009 (ip), vehicle: Klucel (hydroxypropylcellulose) (HPC)
[12] = dose: 100.0 mg/kg/injection, schedule: Q01DX009 (ip), vehicle: Klucel (hydroxypropylcellulose) (HPC)
[13] = dose: 200.0 mg/kg/injection, schedule: Q01DX009 (ip), vehicle: Klucel (hydroxypropylcellulose) (HPC)
[14] = dose: 100.0 mg/kg/injection, schedule: Q04DX002 (ip), vehicle: Klucel (hydroxypropylcellulose) (HPC)
[15] = dose: 200.0 mg/kg/injection, schedule: Q04DX002 (ip), vehicle: Klucel (hydroxypropylcellulose) (HPC)
[16] = dose: 400.0 mg/kg/injection, schedule: Q01DX009 (ip), vehicle: Klucel (hydroxypropylcellulose) (HPC)
[17] = dose: 100.0 mg/kg/injection, schedule: Q01DX009 (ip), vehicle: saline with Tween-80
[18] = dose: 200.0 mg/kg/injection, schedule: Q01DX009 (ip), vehicle: saline with Tween-80
[19] = dose: 400.0 mg/kg/injection, schedule: Q01DX009 (ip), vehicle: saline with Tween-80

Measured: T/C

NC(=NCCCC(NC(=O)OCc1ccccc1)C(=O)NC1C(CO)OC(n2cnc3c(N)ncnc32)C1O)N[N+](=O)[O-] (stereo not given)
inactive: dose: 50.0 mg/kg/injection, schedule: Q01DX001 (ip), vehicle: saline 90 % of control | [1] 95 % of control | [2] 93 % of control

O=C(Nc1cc[n+](Cc2ccc(S(=O)(=O)F)cc2)cc1)c1ccccc1
inactive: [3] 96 % of control | [4] 98 % of control

Cc1cc2c(cc1C)-c1ccccc1C2=O
inactive: [5] 102 % of control | [6] 102 % of control | [7] 96 % of control

OCC1CCCC1
inactive: dose: 50.0 mg/kg/injection, schedule: Q01DX001 (ip), vehicle: carboxymethylcellulose (CMC) 92 % of control | [5] 94 % of control | [6] 92 % of control | [7] 94 % of control

C(CCCCc1nn[nH]n1)CCCc1nn[nH]n1
inactive: [8] 94 % of control | [9] 103 % of control | [10] 91 % of control

Cn1c2ccccc2c2nnc(NCCCCO)nc21
inactive: dose: 100.0 mg/kg/injection, schedule: Q04DX002 (ip), vehicle: saline 106 % of control | dose: 200.0 mg/kg/injection, schedule: Q04DX002 (ip), vehicle: saline 97 % of control | dose: 400.0 mg/kg/injection, schedule: Q04DX002 (ip), vehicle: saline 101 % of control

Cc1ccccc1N=Nc1c(O)[nH]c2ccccc12
inactive: dose: 100.0 mg/kg/injection, schedule: Q01DX001 (ip), vehicle: acetone 93 % of control | dose: 200.0 mg/kg/injection, schedule: Q01DX001 (ip), vehicle: acetone 95 % of control | dose: 400.0 mg/kg/injection, schedule: Q01DX001 (ip), vehicle: acetone 96 % of control

COCC1OC(n2cc(C)c(=O)n(C)c2=O)CC1OC (stereo not given)
inactive: dose: 50.0 mg/kg/injection, schedule: Q01DX005 (ip), vehicle: saline 102 % of control | dose: 100.0 mg/kg/injection, schedule: Q01DX005 (ip), vehicle: saline 98 % of control | dose: 200.0 mg/kg/injection, schedule: Q01DX005 (ip), vehicle: saline 100 % of control

CN1C(=O)CCS(=O)(=O)C1c1ccc(Cl)c(Cl)c1 (stereo not given)
inactive: dose: 12.5 mg/kg/injection, schedule: Q01DX009 (ip), vehicle: Klucel (hydroxypropylcellulose) (HPC) 101 % of control | dose: 25.0 mg/kg/injection, schedule: Q01DX009 (ip), vehicle: Klucel (hydroxypropylcellulose) (HPC) 114 % of control | dose: 25.0 mg/kg/injection, schedule: Q04DX003 (ip), vehicle: Klucel (hydroxypropylcellulose) (HPC) 105 % of control | [11] 103 % of control | dose: 50.0 mg/kg/injection, schedule: Q04DX003 (ip), vehicle: Klucel (hydroxypropylcellulose) (HPC) 100 % of control | [12] 110 % of control | [8] 105 % of control | [13] 104 % of control | [9] 108 % of control

COc1cc2c(cc1OC)C1Cc3ccc(OC)c(OC)c3CN1CC2 (stereo not given)
inactive: dose: 50.0 mg/kg/injection, schedule: Q04DX003 (ip), vehicle: saline with Tween-80 86 % of control | [14] 87 % of control | [3] 116 % of control | [15] 103 % of control | [4] 94 % of control

Cc1cn(C2OC(CO)C(O[Si](C)(C)C)C(O[Si](C)(C)C)C2O[Si](C)(C)C)c(=O)[nH]c1=O (stereo not given)
inactive: [1] 97 % of control | [2] 94 % of control | dose: 400.0 mg/kg/injection, schedule: Q01DX001 (ip), vehicle: saline 97 % of control

O=[N+]([O-])c1ccc(N=N/C(Cc2ccccc2)=N\Nc2ccccc2)cc1
inactive: [11] 90 % of control | [12] 95 % of control | [8] 87 % of control | [13] 92 % of control | [9] 100 % of control | [16] 90 % of control | [10] 101 % of control

CN(C)S(=O)(=O)ON1C(=O)c2ccccc2C1=O
inactive: dose: 75.0 mg/kg/injection, schedule: Q01DX001 (ip), vehicle: other 103 % of control | dose: 150.0 mg/kg/injection, schedule: Q01DX001 (ip), vehicle: other 108 % of control | dose: 300.0 mg/kg/injection, schedule: Q01DX001 (ip), vehicle: other 94 % of control

CN1CCCC2C(c3ccccc3)C(C3=NCCCC3)C(c3ccccc3)CC21 (stereo not given)
inactive: [1] 88 % of control

CC(=O)Nc1ccc(C(C)(C)CC(=O)O)cc1[N+](=O)[O-]
inactive: dose: 50.0 mg/kg/injection, schedule: Q01DX009 (ip), vehicle: saline with Tween-80 90 % of control | [17] 87 % of control | [18] 87 % of control

O=C(CC(Br)C(=O)c1ccccc1)c1ccccc1 (stereo not given)
inactive: [17] 97 % of control | [18] 97 % of control | [19] 94 % of control

CC(C)COC(=O)Cc1cccc2ccccc12
inactive: dose: 222.0 mg/kg/injection, schedule: Q01DX Z (ip), vehicle: saline 96 % of control | dose: 333.0 mg/kg/injection, schedule: Q01DX Z (ip), vehicle: saline 96 % of control | dose: 500.0 mg/kg/injection, schedule: Q01DX Z (ip), vehicle: saline 94 % of control

CCS(=O)(=O)CCNC(=O)NS(=O)(=O)c1ccc(C)cc1
inactive: [3] 97 % of control | [4] 97 % of control | dose: 400.0 mg/kg/injection, schedule: Q04DX003 (ip), vehicle: saline with Tween-80 90 % of control

CC1C(Br)C(=O)NC(=O)N1Cc1ccccc1 (stereo not given)
inactive: dose: 100.0 mg/kg/injection, schedule: Q01DX Z (ip), vehicle: methylcellulose (MC) 92 % of control | dose: 200.0 mg/kg/injection, schedule: Q01DX Z (ip), vehicle: methylcellulose (MC) 94 % of control

c1ccc(P2CCc3[nH]c4ccccc4c3C2)cc1 (stereo not given)
inactive: [17] 97 % of control | dose: 100.0 mg/kg/injection, schedule: Q04DX003 (ip), vehicle: saline 100 % of control | [18] 110 % of control | dose: 200.0 mg/kg/injection, schedule: Q04DX003 (ip), vehicle: saline 96 % of control | [19] 100 % of control | dose: 400.0 mg/kg/injection, schedule: Q04DX003 (ip), vehicle: saline 113 % of control

COCCN(CCOC)C(=O)Nc1cccc(Cl)c1
inactive: dose: 100.0 mg/kg/injection, schedule: Q04DX002 (ip), vehicle: saline with Tween-80 90 % of control | dose: 200.0 mg/kg/injection, schedule: Q04DX002 (ip), vehicle: saline with Tween-80 100 % of control | dose: 400.0 mg/kg/injection, schedule: Q04DX002 (ip), vehicle: saline with Tween-80 106 % of control

C/C(=C\C(=O)/C=C(\C)NCc1ccccc1)NCc1ccccc1
inactive: [8] 98 % of control | [9] 100 % of control | [10] 93 % of control

ClC1CC2CCC1(Cl)C2 (stereo not given)
inactive: [12] 97 % of control | [8] 96 % of control | [13] 92 % of control | [9] 100 % of control | [16] 93 % of control | [10] 96 % of control

COc1cc(C(=O)NCc2cccs2)cc(OC)c1OC
inactive: [14] 102 % of control | [15] 94 % of control | dose: 400.0 mg/kg/injection, schedule: Q04DX002 (ip), vehicle: Klucel (hydroxypropylcellulose) (HPC) 94 % of control

O=C1NC(=O)C(CCI)(CCI)C(=O)N1
inactive: [5] 103 % of control | [6] 98 % of control | [7] 109 % of control

From PubChem BioAssay AID248 (DTP/NCI, 2004)
